Tests used:
[1] = 298.15 K; 101.33 kPa; Liquid; Vibrating tube method
[2] = excess molar enthalpy (molar enthalpy of mixing); xn = mol fraction of the nth substance listed; settings: 298.15 K, 100 kPa, Liquid, Power-compensation calorimetry

c1ccccc1 [benzene]
Settings	mass density [kg/m3]
[1]	873.57

c1ccsc1 [thiophene]
Settings	mass density [kg/m3]
[1]	1058.46

CCCO [propan-1-ol]
Settings	mass density [kg/m3]
[1]	799.56

CCCC[N+]1(C)CCCC1.N#C[B-](C#N)(C#N)C#N [1-butyl-1-methylpyrrolidinium tetracyanoborate] + Cc1ccccc1
[2]
Settings	excess molar enthalpy [kJ/mol]
x1 = 0.0179	-0.101
x1 = 0.0359	-0.198
x1 = 0.0539	-0.294
x1 = 0.0719	-0.389
x1 = 0.0898	-0.484
x1 = 0.1079	-0.579
x1 = 0.1259	-0.673
x1 = 0.1439	-0.768
x1 = 0.1619	-0.862
x1 = 0.1799	-0.954
x1 = 0.1979	-1.04
x1 = 0.2159	-1.13
x1 = 0.2339	-1.22
x1 = 0.2519	-1.27
x1 = 0.2698	-1.31
x1 = 0.2878	-1.34
x1 = 0.2933	-1.32
x1 = 0.3059	-1.35
x1 = 0.3203	-1.33
x1 = 0.3239	-1.35
x1 = 0.3369	-1.34
x1 = 0.3603	-1.31
x1 = 0.4004	-1.26
x1 = 0.4405	-1.19
x1 = 0.4805	-1.12
x1 = 0.5206	-1.03
x1 = 0.5606	-0.947
x1 = 0.6006	-0.862
x1 = 0.6407	-0.771
x1 = 0.6807	-0.681
x1 = 0.7207	-0.591
x1 = 0.7606	-0.502
x1 = 0.8006	-0.415
x1 = 0.8405	-0.328
x1 = 0.8803	-0.243
x1 = 0.9202	-0.159
x1 = 0.9601	-0.0767

CCCC[N+]1(C)CCCC1.N#C[B-](C#N)(C#N)C#N [1-butyl-1-methylpyrrolidinium tetracyanoborate]
Settings	mass density [kg/m3]
[1]	975.61

CCCCO [butan-1-ol]
Settings	mass density [kg/m3]
[1]	805.79

CO [methanol]
Settings	mass density [kg/m3]
[1]	786.6

CCCC[N+]1(C)CCCC1.N#C[B-](C#N)(C#N)C#N [1-butyl-1-methylpyrrolidinium tetracyanoborate] + CCO
[2]
Settings	excess molar enthalpy [kJ/mol]
x1 = 0.0134	0.157
x1 = 0.0268	0.305
x1 = 0.0402	0.448
x1 = 0.0537	0.585
x1 = 0.0672	0.716
x1 = 0.0808	0.841
x1 = 0.0948	0.962
x1 = 0.1088	1.08
x1 = 0.1228	1.18
x1 = 0.1368	1.28
x1 = 0.1509	1.38
x1 = 0.1511	1.4
x1 = 0.165	1.46
x1 = 0.1652	1.48
x1 = 0.1792	1.55
x1 = 0.1902	1.63
x1 = 0.1933	1.62
x1 = 0.2067	1.69
x1 = 0.2202	1.77
x1 = 0.2403	1.86
x1 = 0.2803	1.99
x1 = 0.3203	2.09
x1 = 0.3604	2.16
x1 = 0.4005	2.2
x1 = 0.4406	2.2
x1 = 0.4806	2.18
x1 = 0.5206	2.13
x1 = 0.5607	2.06
x1 = 0.6007	1.96
x1 = 0.6408	1.85
x1 = 0.6807	1.71
x1 = 0.7203	1.55
x1 = 0.7604	1.37
x1 = 0.8002	1.18
x1 = 0.8402	0.972
x1 = 0.8802	0.746
x1 = 0.9201	0.508
x1 = 0.96	0.256

CCCC[N+]1(C)CCCC1.N#C[B-](C#N)(C#N)C#N [1-butyl-1-methylpyrrolidinium tetracyanoborate] + CO
[2]
Settings	excess molar enthalpy [kJ/mol]
x1 = 0.013	0.108
x1 = 0.026	0.217
x1 = 0.039	0.327
x1 = 0.052	0.436
x1 = 0.065	0.54
x1 = 0.078	0.641
x1 = 0.091	0.736
x1 = 0.104	0.826
x1 = 0.117	0.91
x1 = 0.13	0.99
x1 = 0.1362	1.07
x1 = 0.143	1.06
x1 = 0.156	1.13
x1 = 0.1602	1.2
x1 = 0.169	1.2
x1 = 0.1775	1.24
x1 = 0.2003	1.4
x1 = 0.2404	1.55
x1 = 0.2805	1.67
x1 = 0.3207	1.75
x1 = 0.3608	1.81
x1 = 0.4009	1.84
x1 = 0.441	1.84
x1 = 0.4812	1.82
x1 = 0.5213	1.77
x1 = 0.5615	1.7
x1 = 0.6016	1.61
x1 = 0.6416	1.51
x1 = 0.6816	1.39
x1 = 0.7217	1.25
x1 = 0.7616	1.09
x1 = 0.8015	0.923
x1 = 0.8414	0.739
x1 = 0.8814	0.545
x1 = 0.9213	0.339
x1 = 0.9606	0.133

CCCC[N+]1(C)CCCC1.N#C[B-](C#N)(C#N)C#N [1-butyl-1-methylpyrrolidinium tetracyanoborate] + CCCO
[2]
Settings	excess molar enthalpy [kJ/mol]
x1 = 0.014	0.217
x1 = 0.028	0.416
x1 = 0.042	0.598
x1 = 0.056	0.766
x1 = 0.07	0.922
x1 = 0.084	1.07
x1 = 0.098	1.2
x1 = 0.112	1.33
x1 = 0.126	1.44
x1 = 0.1399	1.55
x1 = 0.1539	1.65
x1 = 0.168	1.74
x1 = 0.1819	1.83
x1 = 0.1959	1.91
x1 = 0.21	1.98
x1 = 0.224	2.05
x1 = 0.2257	2.02
x1 = 0.238	2.11
x1 = 0.252	2.17
x1 = 0.2592	2.18
x1 = 0.264	2.21
x1 = 0.2983	2.31
x1 = 0.3374	2.4
x1 = 0.3765	2.45
x1 = 0.4156	2.46
x1 = 0.4547	2.44
x1 = 0.4938	2.4
x1 = 0.5329	2.33
x1 = 0.572	2.23
x1 = 0.611	2.11
x1 = 0.65	1.97
x1 = 0.6891	1.81
x1 = 0.7282	1.63
x1 = 0.7672	1.44
x1 = 0.8062	1.22
x1 = 0.8451	0.995
x1 = 0.8839	0.755
x1 = 0.9228	0.499
x1 = 0.9615	0.233

CCCC[N+]1(C)CCCC1.N#C[B-](C#N)(C#N)C#N [1-butyl-1-methylpyrrolidinium tetracyanoborate] + c1ccsc1
[2]
Settings	excess molar enthalpy [kJ/mol]
x1 = 0.0147	-0.1
x1 = 0.0293	-0.196
x1 = 0.0439	-0.289
x1 = 0.0586	-0.383
x1 = 0.0732	-0.476
x1 = 0.0879	-0.569
x1 = 0.1026	-0.662
x1 = 0.1173	-0.754
x1 = 0.1321	-0.847
x1 = 0.1468	-0.938
x1 = 0.1616	-1.02
x1 = 0.1763	-1.1
x1 = 0.1911	-1.17
x1 = 0.2059	-1.22
x1 = 0.2207	-1.26
x1 = 0.2316	-1.27
x1 = 0.2355	-1.3
x1 = 0.2503	-1.32
x1 = 0.2515	-1.3
x1 = 0.2642	-1.34
x1 = 0.2763	-1.32
x1 = 0.316	-1.31
x1 = 0.3559	-1.27
x1 = 0.3957	-1.21
x1 = 0.4356	-1.14
x1 = 0.4756	-1.06
x1 = 0.5155	-0.975
x1 = 0.5556	-0.89
x1 = 0.5958	-0.804
x1 = 0.636	-0.719
x1 = 0.6763	-0.634
x1 = 0.7165	-0.55
x1 = 0.757	-0.466
x1 = 0.7974	-0.384
x1 = 0.8378	-0.304
x1 = 0.8782	-0.225
x1 = 0.9188	-0.147
x1 = 0.9595	-0.0713

CCO [ethanol]
Settings	mass density [kg/m3]
[1]	785.39

CCCC[N+]1(C)CCCC1.N#C[B-](C#N)(C#N)C#N [1-butyl-1-methylpyrrolidinium tetracyanoborate] + CCCCO
[2]
Settings	excess molar enthalpy [kJ/mol]
x1 = 0.0149	0.244
x1 = 0.03	0.465
x1 = 0.0449	0.665
x1 = 0.0599	0.847
x1 = 0.0749	1.01
x1 = 0.0899	1.17
x1 = 0.1049	1.31
x1 = 0.1199	1.44
x1 = 0.1349	1.56
x1 = 0.1499	1.67
x1 = 0.1649	1.78
x1 = 0.1799	1.87
x1 = 0.1949	1.96
x1 = 0.2099	2.05
x1 = 0.2248	2.12
x1 = 0.2399	2.19
x1 = 0.2549	2.25
x1 = 0.2698	2.31
x1 = 0.2849	2.36
x1 = 0.2999	2.41
x1 = 0.4828	2.47
x1 = 0.5199	2.42
x1 = 0.557	2.35
x1 = 0.5941	2.25
x1 = 0.631	2.12
x1 = 0.6681	1.98
x1 = 0.7049	1.82
x1 = 0.7419	1.64
x1 = 0.7789	1.45
x1 = 0.8157	1.24
x1 = 0.8525	1.01
x1 = 0.8892	0.777
x1 = 0.9262	0.528
x1 = 0.9632	0.267

CCCC[N+]1(C)CCCC1.N#C[B-](C#N)(C#N)C#N [1-butyl-1-methylpyrrolidinium tetracyanoborate] + c1ccccc1
[2]
Settings	excess molar enthalpy [kJ/mol]
x1 = 0.0138	-0.0849
x1 = 0.0277	-0.168
x1 = 0.0415	-0.251
x1 = 0.0555	-0.334
x1 = 0.0694	-0.418
x1 = 0.0834	-0.502
x1 = 0.0975	-0.586
x1 = 0.1115	-0.67
x1 = 0.1256	-0.754
x1 = 0.1398	-0.838
x1 = 0.1539	-0.918
x1 = 0.1681	-0.995
x1 = 0.1824	-1.06
x1 = 0.1966	-1.11
x1 = 0.2109	-1.16
x1 = 0.2253	-1.19
x1 = 0.2396	-1.22
x1 = 0.2534	-1.21
x1 = 0.254	-1.23
x1 = 0.2685	-1.24
x1 = 0.2767	-1.24
x1 = 0.28	-1.24
x1 = 0.3165	-1.23
x1 = 0.3564	-1.19
x1 = 0.3963	-1.13
x1 = 0.4362	-1.05
x1 = 0.4762	-0.973
x1 = 0.5162	-0.889
x1 = 0.5564	-0.804
x1 = 0.5965	-0.721
x1 = 0.6367	-0.641
x1 = 0.6769	-0.562
x1 = 0.7172	-0.484
x1 = 0.7575	-0.41
x1 = 0.7979	-0.336
x1 = 0.8384	-0.265
x1 = 0.8788	-0.195
x1 = 0.9191	-0.128
x1 = 0.9596	-0.0624

Cc1ccccc1 [toluene]
Settings	mass density [kg/m3]
[1]	862.22

Source: the NIST ThermoML archive (doi:10.1016/j.jct.2015.06.004)
